Test results: publication PMC10713630, “Elucidation of the structural basis for ligand binding and translocation in conserved insect odorant receptor co-receptors” (Nature Communications, 2023)
Values joined by “and” are separate entries in the source; they are usually repeats but may differ in a detail not shown here. Equal values may be shown once. “Also recorded” adds a separate entry of the source.

Experiments:
DmelOrco L141A = DmelOrco L141A (Drosophila melanogaster, UniProt Q9VNB5, L141A); experiment: TEVC recording of VUAA1-induced current, DmelOrco L141A in Xenopus oocytes; format: cell-based; conditions: 500 µM VUAA1, TEVC
Chain of DmelOrco L141A (Q9VNB5 whole entry L141A, the tested form may be a part): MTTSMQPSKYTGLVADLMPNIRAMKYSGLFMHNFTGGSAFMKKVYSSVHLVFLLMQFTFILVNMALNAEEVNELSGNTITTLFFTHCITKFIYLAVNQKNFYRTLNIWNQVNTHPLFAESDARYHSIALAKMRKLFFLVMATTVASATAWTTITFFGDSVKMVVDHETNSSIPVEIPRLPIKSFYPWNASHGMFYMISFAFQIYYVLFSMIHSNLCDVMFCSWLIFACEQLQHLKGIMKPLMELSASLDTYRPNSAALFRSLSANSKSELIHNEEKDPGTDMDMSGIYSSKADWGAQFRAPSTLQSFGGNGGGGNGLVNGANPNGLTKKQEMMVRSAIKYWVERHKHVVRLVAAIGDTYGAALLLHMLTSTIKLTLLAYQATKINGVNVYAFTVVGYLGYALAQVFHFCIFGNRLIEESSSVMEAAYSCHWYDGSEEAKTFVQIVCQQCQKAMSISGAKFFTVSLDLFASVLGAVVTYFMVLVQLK
Text: (§1) All Orco gene sequences were optimized[63] for protein expression in Xenopus laevis oocytes with the GenSmartTM Codon optimization Tool and subcloned into a pGEMHE-derived vector. The wildtype gene of Drosophila melanogaster Orco (DmelOrco) was synthesized by Genscript and subcloned with XmaI/XhoI cloning sites. Site-directed mutagenesis of DmelOrco was done by PCR with the Q5® site directed mutagenesis kit (NEB) using primers optimized with the NEBase Changer online tool and following the supplier’s protocol. After transformation of commercial competent bacteria (XL10 Gold) by standard heat-shock protocol and overnight culture in ampicillin-containing LB plates, positive clones were identified by electrophoretic restriction profile and external sequencing (Genewiz). DNAs of positive clones were amplified with Qiagen MidiPrep Kit and the ORF was fully sequenced. […] DNA and RNA were analyzed by agarose-gel electrophoresis and quantified by spectrophotometry. […]
(§2) Whole cell currents were recorded with the two-electrode voltage-clamp (TEVC) technique with the HiClamp robot (MultiChannel System). […] Data were extracted with M. Vivaudou’s programs[65] and statistically analyzed with Prism 8 (Graphpad). […]
(§3) 100 by 500 µM of the ligand VUAA1 and measured by TEVC recordings on DmelOrco WT and mutants […]

DmelOrco S146V = DmelOrco S146V (Drosophila melanogaster, UniProt Q9VNB5, S146V); experiment: TEVC recording of VUAA1-induced current, DmelOrco S146V in Xenopus oocytes; format: cell-based
Chain of DmelOrco S146V (Q9VNB5 whole entry S146V, the tested form may be a part): as the sequence (Q9VNB5 whole entry L141A, the tested form may be a part) above, with A141L, S146V counted along it
Text: (§4) All Orco gene sequences were optimized[63] for protein expression in Xenopus laevis oocytes with the GenSmartTM Codon optimization Tool and subcloned into a pGEMHE-derived vector. The wildtype gene of Drosophila melanogaster Orco (DmelOrco) was synthesized by Genscript and subcloned with XmaI/XhoI cloning sites. Site-directed mutagenesis of DmelOrco was done by PCR with the Q5® site directed mutagenesis kit (NEB) using primers optimized with the NEBase Changer online tool and following the supplier’s protocol. After transformation of commercial competent bacteria (XL10 Gold) by standard heat-shock protocol and overnight culture in ampicillin-containing LB plates, positive clones were identified by electrophoretic restriction profile and external sequencing (Genewiz). DNAs of positive clones were amplified with Qiagen MidiPrep Kit and the ORF was fully sequenced. For in vitro transcription, DNAs were linearized with restriction enzyme NotI that cuts a unique site in the 3′ region of the polyA tail. The linearized DNAs were purified by the standard phenol:chloroform extraction method and transcribed into mRNA using the T7 ultra mMessage mMachine kit (Thermo Fisher Scientific). mRNAs were purified with the NucleoSpin RNA plus XS kit (Machery-Nagel). DNA and RNA were analyzed by agarose-gel electrophoresis and quantified by spectrophotometry.
Xenopus laevis oocytes were prepared, as previously described. Briefly, oocytes were defolliculated after surgical retrieval by type 1 A collagenase over 2-3 h under smooth horizontal agitation. They were manually selected and incubated at 19 °C in modified-Barth’s solution (1 mM KCl, 0.82 mM MgSO4, 88 mM NaCl, 2.4 mM NaHCO3, 0.41 mM CaCl2, Ca(NO3)2 0.3 mM, 16 mM HEPES, pH 7.4) supplemented with 100 U mL^−1 of penicillin and streptomycin and 0.1 mg mL^−1 of gentamycin. […]
(§5) Whole cell currents were recorded with the two-electrode voltage-clamp (TEVC) technique with the HiClamp robot (MultiChannel System). […] Data were extracted with M. Vivaudou’s programs[65] and statistically analyzed with Prism 8 (Graphpad).

MdesOrco = conditions: cited from earlier work
DmelOrco I79A = DmelOrco I79A (Drosophila melanogaster, UniProt Q9VNB5, I79A); experiment: TEVC recording of VUAA1-induced current, DmelOrco I79A in Xenopus oocytes; format: cell-based; set-up: VUAA1-induced current, i79A: unit not given here
Chain of DmelOrco I79A (Q9VNB5 whole entry I79A, the tested form may be a part): as the sequence (Q9VNB5 whole entry L141A, the tested form may be a part) above, with I79A, A141L counted along it
Text: as §1, with “sequenced. For in vitro transcription, DNAs were linearized with restriction enzyme NotI that cuts a unique site in the 3′ region of the polyA tail.” for “sequenced.”
as §5

DmelOrco Y390A = DmelOrco Y390A (Drosophila melanogaster, UniProt Q9VNB5, Y390A); experiment: TEVC recording of VUAA1-induced current, DmelOrco Y390A in Xenopus oocytes; format: cell-based; conditions: 500 µM VUAA1, TEVC
Chain of DmelOrco Y390A (Q9VNB5 whole entry Y390A, the tested form may be a part): as the sequence (Q9VNB5 whole entry L141A, the tested form may be a part) above, with A141L, Y390A counted along it
Text: as §1, with “sequenced. For in vitro transcription, DNAs were linearized with restriction enzyme NotI that cuts a unique site in the 3′ region of the polyA tail.” for “sequenced.”
as §5

DmelOrco M210A = DmelOrco M210A (Drosophila melanogaster, UniProt Q9VNB5, M210A); experiment: TEVC recording of VUAA1-induced current, DmelOrco M210A in Xenopus oocytes; format: cell-based; conditions: 500 µM VUAA1, TEVC
Chain of DmelOrco M210A (Q9VNB5 whole entry M210A, the tested form may be a part): as the sequence (Q9VNB5 whole entry L141A, the tested form may be a part) above, with A141L, M210A counted along it
Text: as §1, with “sequenced. For in vitro transcription, DNAs were linearized with restriction enzyme NotI that cuts a unique site in the 3′ region of the polyA tail.” for “sequenced.”
as §5

DmelOrco V206S = DmelOrco V206S (Drosophila melanogaster, UniProt Q9VNB5, V206S); experiment: TEVC recording of VUAA1-induced current, DmelOrco V206S in Xenopus oocytes; format: cell-based; set-up: unit not given here; conditions: Fig.4b; individual oocytes
Chain of DmelOrco V206S (Q9VNB5 whole entry V206S, the tested form may be a part): as the sequence (Q9VNB5 whole entry L141A, the tested form may be a part) above, with A141L, V206S counted along it
Text: as §1, with “sequenced. For in vitro transcription, DNAs were linearized with restriction enzyme NotI that cuts a unique site in the 3′ region of the polyA tail.” for “sequenced.”
as §5

DmelOrco S146W = DmelOrco S146W (Drosophila melanogaster, UniProt Q9VNB5, S146W); experiment: TEVC recording of VUAA1-induced current, DmelOrco S146W in Xenopus oocytes; format: cell-based; conditions: 500 µM VUAA1, TEVC
Chain of DmelOrco S146W (Q9VNB5 whole entry S146W, the tested form may be a part): as the sequence (Q9VNB5 whole entry L141A, the tested form may be a part) above, with A141L, S146W counted along it
Text: as §1, with “sequenced. For in vitro transcription, DNAs were linearized with restriction enzyme NotI that cuts a unique site in the 3′ region of the polyA tail.” for “sequenced.”
as §5

DmelOrco L141V = DmelOrco L141V (Drosophila melanogaster, UniProt Q9VNB5, L141V); experiment: TEVC recording of VUAA1-induced current, DmelOrco L141V in Xenopus oocytes; format: cell-based; conditions: 500 µM VUAA1, TEVC
Chain of DmelOrco L141V (Q9VNB5 whole entry L141V, the tested form may be a part): as the sequence (Q9VNB5 whole entry L141A, the tested form may be a part) above, with A141V counted along it
Text: as §1, §2, §3

DmelOrco I79W = DmelOrco I79W (Drosophila melanogaster, UniProt Q9VNB5, I79W); experiment: TEVC recording of VUAA1-induced current, DmelOrco I79W in Xenopus oocytes; format: cell-based; set-up: VUAA1-induced current, i79W: unit not given here; conditions: for VUAA1-induced current, i79W: individual oocytes
Chain of DmelOrco I79W (Q9VNB5 whole entry I79W, the tested form may be a part): as the sequence (Q9VNB5 whole entry L141A, the tested form may be a part) above, with I79W, A141L counted along it
Text: as §4
Xenopus laevis oocytes were prepared, as previously described. Briefly, oocytes were defolliculated after surgical retrieval by type 1 A collagenase over 2-3 h under smooth horizontal agitation. They were manually selected and incubated at 19 °C in modified-Barth’s solution (1 mM KCl, 0.82 mM MgSO4, 88 mM NaCl, 2.4 mM NaHCO3, 0.41 mM CaCl2, Ca(NO3)2 0.3 mM, 16 mM HEPES, pH 7.4) supplemented with 100 U mL^−1 of penicillin and streptomycin and 0.1 mg mL^−1 of gentamycin. Each oocyte was micro-injected with the Nanoject instrument (Drummond) with 50 nL of 20 ng of mRNA coding for the Orco of interest. Injected oocytes were incubated individually in 96-well plates for 4 days at 19 °C in the same buffer. Different batches of oocytes have been tested per construct. The results of the mutants of interest have been confirmed by a second set of experiments comparing the amplitudes with WT in the same day and from the same batch of oocytes (Supplementary Fig. 11).
Whole cell currents were recorded with the two-electrode voltage-clamp (TEVC) technique with the HiClamp robot (MultiChannel System). Microelectrodes were filled with 3 M KCl. The high K^+ buffer used for recordings was composed of 91 mM KCl, 1 mM MgCl2, 1.8 mM CaCl2, 5 mM HEPES, pH 7.4. Membrane voltage was clamped to −50 mV and VUAA1 was applied for 60 s. Data were extracted with M. Vivaudou’s programs[65] and statistically analyzed with Prism 8 (Graphpad).

DmelOrco F84W = DmelOrco F84W (Drosophila melanogaster, UniProt Q9VNB5, F84W); experiment: TEVC recording of VUAA1-induced current, DmelOrco F84W in Xenopus oocytes; format: cell-based; conditions: 500 µM VUAA1, TEVC
Chain of DmelOrco F84W (Q9VNB5 whole entry F84W, the tested form may be a part): as the sequence (Q9VNB5 whole entry L141A, the tested form may be a part) above, with F84W, A141L counted along it
Text: as §1, with “sequenced. For in vitro transcription, DNAs were linearized with restriction enzyme NotI that cuts a unique site in the 3′ region of the polyA tail.” for “sequenced.”
as §5

DmelOrco I181W = DmelOrco I181W (Drosophila melanogaster, UniProt Q9VNB5, I181W); experiment: TEVC recording of VUAA1-induced current, DmelOrco I181W in Xenopus oocytes; format: cell-based; set-up: VUAA1-induced current, i181W: unit not given here
Chain of DmelOrco I181W (Q9VNB5 whole entry I181W, the tested form may be a part): as the sequence (Q9VNB5 whole entry L141A, the tested form may be a part) above, with A141L, I181W counted along it
Text: as §1, with “sequenced. For in vitro transcription, DNAs were linearized with restriction enzyme NotI that cuts a unique site in the 3′ region of the polyA tail.” for “sequenced.”
as §5

DmelOrco W150A = DmelOrco W150A (Drosophila melanogaster, UniProt Q9VNB5, W150A); experiment: TEVC recording of VUAA1-induced current, DmelOrco W150A in Xenopus oocytes; format: cell-based; set-up: VUAA1-induced current, W150A: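 current amplitude in µA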
Chain of DmelOrco W150A (Q9VNB5 whole entry W150A, the tested form may be a part): as the sequence (Q9VNB5 whole entry L141A, the tested form may be a part) above, with A141L, W150A counted along it
Text: as §1, with “sequenced. For in vitro transcription, DNAs were linearized with restriction enzyme NotI that cuts a unique site in the 3′ region of the polyA tail.” for “sequenced.”
as §5

DmelOrco Y397A = DmelOrco Y397A (Drosophila melanogaster, UniProt Q9VNB5, Y397A); experiment: TEVC recording of VUAA1-induced current, DmelOrco Y397A in Xenopus oocytes; format: cell-based; set-up: VUAA1-induced current, Y397A: unit not given here
Chain of DmelOrco Y397A (Q9VNB5 whole entry Y397A, the tested form may be a part): as the sequence (Q9VNB5 whole entry L141A, the tested form may be a part) above, with A141L, Y397A counted along it
Text: as §1, with “sequenced. For in vitro transcription, DNAs were linearized with restriction enzyme NotI that cuts a unique site in the 3′ region of the polyA tail.” for “sequenced.”
as §5

What does the source list for CCc1ccc(NC(=O)CSc2nnc(-c3cccnc3)n2CC)cc1 [VUAA1, N-(4-ethylphenyl)−2-((4-ethyl-5-(3-pyridinyl)−4H-1,2,4-triazol-3-yl)thio)acetamide]?
Response to VUAA1 compared with WT (DmelOrco L141A): did not induce significant change; EC50 (DmelOrco S146V): 82.2 µM; Current induced by VUAA1 (median) (DmelOrco S146V; 500 µM VUAA1, TEVC, S146V): 11.68 µA; Imax (DmelOrco S146V; concentration-effect curve of VUAA1, TEVC, S146V): 6.99 µA; Sensitivity of MdesOrco to VUAA1 (MdesOrco): VUAA1-insensitive; Response to VUAA1 compared with WT (DmelOrco I79A; 500 µM VUAA1, TEVC, I79A): did not significantly affect the amplitude of activation; VUAA1-induced current, i79A (DmelOrco I79A; Fig.4b, individual oocytes): 1.26 and 4.71 and 3.65 and 1.07 and 3.06 and 3.49 and 3.19 and 0.68 and 2.72 and 3.85; Response to VUAA1 compared with WT (DmelOrco Y390A): did not show significant change; Current induced by VUAA1 (median) (DmelOrco M210A): 5.72 µA; VUAA1-induced current, V206S (DmelOrco V206S): 3.68 and 9.72 and 7.51 and 6.18 and 8.36 and 5.44 and 4.17 and 5.76; Response to VUAA1 compared with WT (DmelOrco S146W): significant decrease in the response; Response to VUAA1 compared with WT (DmelOrco L141V): did not induce significant change; Response to VUAA1 compared with WT (DmelOrco I79W; 500 µM VUAA1, TEVC, I79W): significantly reduced or abolished the activation; VUAA1-induced current, i79W (DmelOrco I79W; Fig.4b): 0.5 and 0.66 and 0.09 and 0.23 and 0.24 and 0.02 and 0.06 and 0.14 and 0.05; VUAA1-induced current, i79W (DmelOrco I79W; Fig.4i dose-response, VUAA1 10 µM (Log(M) -5)): 0.07 (2×) and 0.12 and 0.2 and 0.01 (3×) and 0.02 and 0.41 and 0.18; VUAA1-induced current, i79W (DmelOrco I79W; Fig.4i dose-response, VUAA1 25 µM (Log(M) -4.6)): 0.12 and 0.11 and 0.22 and 0.36 and 0.01 (3×) and 0.03 and 0.6 and 0.26; VUAA1-induced current, i79W (DmelOrco I79W; Fig.4i dose-response, VUAA1 50 µM (Log(M) -4.3)): 0.18 and 0.17 and 0.32 and 0.56 and 0.02 (2×) and 0.03 and 0.05 and 0.68 and 0.28; VUAA1-induced current, i79W (DmelOrco I79W; Fig.4i dose-response, VUAA1 100 µM (Log(M) -4)): 0.23 and 0.22 and 0.41 and 0.7 and 0.02 (2×) and 0.06 and 0.09 and 0.71 and 0.29; VUAA1-induced current, i79W (DmelOrco I79W; Fig.4i dose-response, VUAA1 500 µM (Log(M) -3.3)): 0.29 and 0.28 and 0.52 and 0.84 and 0.02 and 0.07 and 0.12 and 0.82 and 0.03 and 0.25; VUAA1-induced current, i79W (DmelOrco I79W; Fig.4i dose-response, VUAA1 1000 µM (Log(M) -3)): 0.38 and 0.36 and 0.67 and 1.01 and 0.03 and 0.09 and 0.14 and 0.96 and 0.04 and 0.24; Imax (DmelOrco I79W; concentration-effect curve of VUAA1, TEVC, I79W): 0.65 µA; Response to VUAA1 compared with WT (DmelOrco F84W): did not induce a significant change; Response to VUAA1 compared with WT (DmelOrco I181W; 500 µM VUAA1, TEVC, I181W): significantly reduced or abolished the activation; also recorded: clear loss of VUAA1 activation; VUAA1-induced current, i181W (DmelOrco I181W; Fig.4b, individual oocytes): 0.52 and 0.99 and 0.9 and 0.42 and 0.27 and 1.33 and 0.95 and 0.29 and 0.18 and 1.75 and 2.06 and 1.1 and 0.66 and 0.22 and 0.14 and 0.54 and 0.08; Response to VUAA1 compared with WT (DmelOrco W150A; 500 µM VUAA1, TEVC, W150A): did not significantly affect the amplitude of activation; VUAA1-induced current, W150A (DmelOrco W150A; Fig.4b, individual oocytes): 4.32 and 3.86 and 5.79 and 2.71 and 5.07 and 2.76 and 2.23 and 2.97 and 2.04 and 1.54 and 0.79 and 4.84 and 4.06 and 8; Response to VUAA1 compared with WT (DmelOrco Y397A; 500 µM VUAA1, TEVC, Y397A): did not significantly affect the amplitude of activation; also recorded: did not significantly change the amplitude of activation; VUAA1-induced current, Y397A (DmelOrco Y397A; Fig.4b, individual oocytes): 3.14 and 11.04 and 1.66 and 7.27 and 3.17 and 5.5 and 5.32 and 6.03 and 4.8 and 7.35 and 2.62
